# Assay: particle size (dv10) of darunavir after drying
# Type: physicochemical
# Conditions: 10% (volume %) of particles smaller than value
# Procedure: The active ingredient darunavir ethanolate used in the marketed 300 mg tablet formulation has been manufactured by a process which includes a drying process in which the particulate darunavir is dried on trays, i.e. a static process. However, in order to provide a higher manufacturing throughput and improved safety for the operators, it is desirable to replace the static drying with a tumble drying operation involving drying in a revolving container. Such a change in the drying operation however has a significant effect on the physical characteristics of the particles of the darunavir. In this case the tumble drying of the particles results in a reduction in the dv10 value (dv10 means that 10% (volume %) of the particles has a diameter smaller than the specified value) from approximately 80 microns to approximately 35 microns. […] It will be appreciated that good blend flow and good tablet properties such as weight uniformity and appropriate visual appearance, without any defects, are essential in a large-scale industrial manufacturing process to maximise throughput and ensure consistent and efficient processing of the material.
smiles,measurement,setting,value
"CC(C)CN(C[C@@H](O)[C@H](Cc1ccccc1)NC(=O)O[C@H]1CO[C@H]2OCC[C@H]21)S(=O)(=O)c1ccc(N)cc1 [darunavir, [(1S,2R)-3-[[(4-aminophenyl)sulfonyl](2-methylpropyl)amino]-2-hydroxy-1-(phenylmethyl)propyl]-carbamic acid (3R,3aS,6aR)hexahydrofuro[2,3-b]furan-3-yl ester]",dv10 value,after tumble drying,approximately 35 microns
same,dv10 value,static drying on trays,approximately 80 microns
